This note sets out measurements from patent publication US8759033B2, “CSNR-deficient actinobacteria for the production of an enzyme having chitosanase activity” (Socpra Sciences et Genie S.E.C., priority 2012, dated 2014).

The target in data set [1] is T1, CsnR (Streptomyces lividans, UniProt A0ABN4DYL3). Description: EMSA sugar binding assay: interference with CsnR binding to csnA-WT operator. The note with it: for effect on CsnR binding to operator (summary statement): equilibrium competition experiment and IC50 determination; for effect on gel shift pattern of CsnR with csnA-WT operator: saccharide at 500 nM, FIG. 9; for interference with CsnR binding to the csnA-WT probe: maximal tested concentration of 75 mM. Here is the method:
For the electrophoretic mobility shift assay (EMSA), pairs of complementary oligonucleotides were annealed, generating double-stranded oligonucleotides csnA-WT (wild type), csnA-M1, csnA-M2, csnA-MM, and csnR-WT (see Table 3). Fifty picomoles of double-stranded oligonucleotide was end labeled with ^[γ-32P]ATP (3,000 Ci/mmol) and 20 U of T4 polynucleotide kinase and purified on a G-25 column. DNA binding reaction mixtures (24 μl) contained 10 mM HEPES (pH 7.9), 10% glycerol, 0.2 mM EDTA, 0.5 mM phenylmethylsulfonyl fluoride (PMSF), 0.25 mM DTT, 1 μg poly(dI-dC), and 150 mM KCl. For equilibrium dissociation constant (KD) determination, various concentrations of labeled csnA-WT or csnR-WT probe (0.1 nM to 1.5 nM) and ˜8.5 pmol of purified CsnR were used. For the determination of the 50% inhibitory concentration (IC50) of the DNA competitors, 0.03 nM labeled csnA-WT probe and ˜8.5 pmol of CsnR were used with various concentrations of competitor double-stranded oligonucleotide (0.1 to 125 nM). For the sugar binding assay, ˜8.5 pmol of CsnR was preincubated with glucose, GlcNAc, galactosamine, GlcN, or chitosan oligosaccharides (GlcN)2 to ([…]) in the binding reaction mixture for 15 min on ice before the addition of labeled csnA-WT probe (0.03 nM). Reaction mixtures were incubated at room temperature for 15 min with the labeled probe and then subjected to electrophoresis at 4° C. in a prerun gel (15 min) of 6% polyacrylamide (10 mM Tris, 80 mM glycine, 0.4 mM EDTA [pH 8.3]). Following electrophoresis, gels were dried, and band intensities were visualized with a Phosphorlmager™ and estimated with ImageQuant™ software (version 5.2). All determinations were done in triplicate. KD calculations were done with the Michaelis-Menten nonlinear fit (least squares), and the one-site log IC50 nonlinear fit (least squares) was used for IC50 calculations (GraphPad Prism™ version 5.03 for Windows; GraphPad, San Diego, Calif.).

The target of data set [2] is T1, CsnR. Description: EMSA equilibrium competition with DNA competitors against labeled csnA-WT probe. The note with it: competitor double-stranded oligonucleotide 0.1 to 125 nM, 0.03 nM labeled csnA-WT probe, ~8.5 pmol CsnR, three independent experiments; read-out: IC50 (nM), effect of mutations in the operator sequence on CsnR binding. Here is the method: For the electrophoretic mobility shift assay (EMSA), pairs of complementary oligonucleotides were annealed, generating double-stranded oligonucleotides csnA-WT (wild type), csnA-M1, csnA-M2, csnA-MM, and csnR-WT (see Table 3). Fifty picomoles of double-stranded oligonucleotide was end labeled with ^[γ-32P]ATP (3,000 Ci/mmol) and 20 U of T4 polynucleotide kinase and purified on a G-25 column. DNA binding reaction mixtures (24 μl) contained 10 mM HEPES (pH 7.9), 10% glycerol, 0.2 mM EDTA, 0.5 mM phenylmethylsulfonyl fluoride (PMSF), 0.25 mM DTT, 1 μg poly(dI-dC), and 150 mM KCl. For equilibrium dissociation constant (KD) determination, various concentrations of labeled csnA-WT or csnR-WT probe (0.1 nM to 1.5 nM) and ˜8.5 pmol of purified CsnR were used. For the determination of the 50% inhibitory concentration (IC50) of the DNA competitors, 0.03 nM labeled csnA-WT probe and ˜8.5 pmol of CsnR were used with various concentrations of competitor double-stranded oligonucleotide (0.1 to 125 nM). For the sugar binding assay, ˜8.5 pmol of CsnR was preincubated with glucose, GlcNAc, galactosamine, GlcN, or chitosan oligosaccharides (GlcN)2 to (GlcN)5 at various concentrations (0.00075 to 75 mM) in the binding reaction mixture for 15 min on ice before the addition of labeled csnA-WT probe (0.03 nM). Reaction mixtures were incubated at room temperature for 15 min with the labeled probe and then subjected to electrophoresis at 4° C. in a prerun gel (15 min) of 6% polyacrylamide (10 mM Tris, 80 mM glycine, 0.4 mM EDTA [pH 8.3]). Following electrophoresis, gels were dried, and band intensities were visualized with a Phosphorlmager™ and estimated with ImageQuant™ software (version 5.2). All determinations were done in triplicate. KD calculations were done with the Michaelis-Menten nonlinear fit (least squares), and the one-site log IC50 nonlinear fit (least squares) was used for IC50 calculations (GraphPad Prism™ version 5.03 for Windows; GraphPad, San Diego, Calif.).
For orientation: Mobility shift assays separate free from complexed probe on a gel.

T1 sequence (A0ABN4DYL3 entry or part of it): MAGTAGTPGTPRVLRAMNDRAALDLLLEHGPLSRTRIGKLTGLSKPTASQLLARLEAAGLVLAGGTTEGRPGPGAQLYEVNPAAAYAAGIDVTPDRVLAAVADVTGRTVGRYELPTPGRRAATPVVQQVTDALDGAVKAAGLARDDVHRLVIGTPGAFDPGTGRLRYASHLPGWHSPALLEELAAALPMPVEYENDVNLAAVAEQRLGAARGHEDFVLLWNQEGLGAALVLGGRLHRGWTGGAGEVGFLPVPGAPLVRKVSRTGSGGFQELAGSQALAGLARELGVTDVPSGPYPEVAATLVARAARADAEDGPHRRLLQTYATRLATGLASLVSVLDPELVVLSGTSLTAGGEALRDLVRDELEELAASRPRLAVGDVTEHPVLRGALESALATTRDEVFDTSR

In the case of `N[C@H]1C(O)O[C@H](CO)[C@@H](O)[C@@H]1O` (stereo partly drawn) [GlcN, D-glucosamine], in data set [1], the “effect on CsnR binding to operator (summary statement)” value (shortened to “effect on CsnR binding to operator”) is recorded as “impaired” and the “effect on gel shift pattern of CsnR with csnA-WT operator” value (“effect on gel shift pattern of CsnR” for short) is listed as “strongly affected”.

As to `CC(=O)N[C@H]1C(O)O[C@H](CO)[C@@H](O)[C@@H]1O` (stereo partly drawn) [GlcNAc, N-acetyl-D-glucosamine], in data set [1], the “effect on CsnR binding to operator” value is on record as “no effect”, the “interference with CsnR binding to the csnA-WT probe” value (from here on “interference with CsnR binding”) is listed as “do not interfere” and the “effect on gel shift pattern of CsnR” value is given as “no effect”. As to `NC1C(OC2C(CO)OC(O)C(N)C2O)OC(CO)C(O)C1O` (stereo not drawn) [chitosan dimer], in data set [1], the “effect on CsnR binding to operator” value is recorded as “best effector” and the “effect on gel shift pattern of CsnR” value was “strongly affected”. For the same compound, the “effect on CsnR binding to operator” value in data set [1] (listed as (GlcN)2) is reported as “preferential CsnR ligand molecule”.

As to `NC1C(OC2C(CO)OC(OC3C(CO)OC(OC4C(CO)OC(OC5C(CO)OC(O)C(N)C5O)C(N)C4O)C(N)C3O)C(N)C2O)OC(CO)C(O)C1O` (stereo not drawn) [chitosan pentamer], in data set [1], the “effect on gel shift pattern of CsnR” value is given as “strongly affected”. Consider `N[C@H]1C(O)O[C@H](CO)[C@H](O)[C@@H]1O` (stereo partly drawn) [galactosamine], for which, in data set [1], the “effect on CsnR binding to operator” value is listed as “no effect” and the “interference with CsnR binding” value is reported as “do not interfere”. On to `O=C[C@H](O)[C@@H](O)[C@H](O)[C@H](O)CO` [glucose], for which, in data set [1], the “effect on CsnR binding to operator” value was “no effect”, the “interference with CsnR binding” value is on record as “do not interfere” and the “effect on gel shift pattern of CsnR” value is given as “no effect”.

For “csnA-M1: double-stranded oligonucleotide, csnA operator mutated at position +2, SEQ ID NO: 43 (DNA CCTCTTCTGGTAGGAAACTGTCCTATCAGT; double-stranded, further chemistry not given here)”, in data set [2], the IC50 (as a rule, the concentration needed to halve the response being measured) came to 52.1 nM.

Regarding “csnA-M2: double-stranded oligonucleotide, csnA operator mutated at position +6, SEQ ID NO: 44 (DNA CCTCTTCTGGTAGGAAACTTTCCGATCAGT; double-stranded, further chemistry not given here)”, the IC50 in data set [2] amounted to 2.7 nM. For the compound “csnA-MM: double-stranded oligonucleotide, csnA operator doubly mutated at +2 and +6, SEQ ID NO: 45 (CCTCTTCTGGTAGGAAACTGTCCGATCAGT; double-stranded, further chemistry not given here)”, the IC50 in data set [2] stood at 105 nM. Turning to “csnA-WT: double-stranded oligonucleotide, wild-type csnA operator, SEQ ID NO: 42 (CCTCTTCTGGTAGGAAACTTTCCTATCAGT; double-stranded, further chemistry not given here)”, the 50% inhibitory concentration (IC50) in data set [2] was determined as 1.3 nM.
